Measured values taken from patent US20100267561A1, “HERBICIDAL PYRIDAZINONE DERIVATIVES” (priority 2007, published 2010).

Tests used:
Format in all cases: in vivo
[1] = tested on: green foxtail (Setaria viridis); assay: Test B pre-/postemergence plant response; details: Preemergence
Text: (§1) Seeds of plant species selected from blackgrass (Alopecurus myosuroides), downy bromegrass (Bromus tectorum), green foxtail (Setaria viridis), Italian ryegrass (Lolium multiflorum), wheat (Triticum aestivum), wild oat (Avena fatua), catchweed bedstraw (Galium aparine), bermudagrass (Cynodon dactylon), surinam grass (Brachiaria decumbens), cocklebur (Xanthium strumarium), corn (Zea mays), large crabgrass (Digitaria sanguinalis), woolly cupgrass (Eriochloa villosa), giant foxtail (Setaria faberii), goosegrass (Eleusine indica), johnsongrass (Sorghum halepense), kochia (Kochia scoparia), lambsquarters (Chenopodium album), morningglory (Ipomoea coccinea), eastern black (E.B.) nightshade (Solanum ptycanthum), yellow nutsedge (Cyperus esculentus), pigweed (Amaranthus retroflexus), common ragweed (Ambrosia elation), Russian thistle (Salsola iberica), soybean (Glycine max), common (oilseed) sunflower (Helianthus annuus), and velvetleaf (Abutilon theophrasti) were planted and treated preemergence with test chemicals formulated in a non-phytotoxic solvent mixture which included a surfactant.
(§2) At the same time, plants selected from these crop and weed species and also winter barley (Hordeum vulgare), canarygrass (Phalaris minor), chickweed (Stellaria media) and windgrass (Apera spica-venti) were treated with postemergence applications of some of the test chemicals formulated in the same manner. Plants ranged in height from 2 to 18 cm (1- to 4-leaf stage) for postemergence treatments.
(§3) Plant species in the flooded paddy test consisted of rice (Oryza sativa), umbrella sedge (Cyperus difformis), ducksalad (Heteranthera limosa) and barnyardgrass (Echinochloa crus-galli) grown to the 2-leaf stage for testing. At time of treatment, test pots were flooded to 3 cm above the soil surface, treated by application of test compounds directly to the paddy water, and then maintained at that water depth for the duration of the test. Treated plants and controls were maintained in a greenhouse for 13 to 15 days, after which time all species were compared to controls and visually evaluated. Plant response ratings, summarized in Table B, are based on a scale of 0 to 100 where 0 is no effect and 100 is complete control. A dash (-) response means no test result.

[2] = tested on: large crabgrass (Digitaria sanguinalis); assay: Test B pre-/postemergence plant response; details: Preemergence
Text: as §1, §2, §3

[3] = tested on: johnsongrass (Sorghum halepense); assay: Test B pre-/postemergence plant response; details: Preemergence
Text: as §1, §2, §3

[4] = tested on: pigweed (Amaranthus retroflexus); assay: Test B pre-/postemergence plant response; details: Preemergence
Text: as §1, §2, §3

[5] = tested on: common ragweed (Ambrosia elation); assay: Test B pre-/postemergence plant response; details: Preemergence
Text: as §1, §2, §3

[6] = tested on: velvetleaf (Abutilon theophrasti); assay: Test B pre-/postemergence plant response; details: Preemergence
Text: as §1, §2, §3

[7] = tested on: eastern black (E.B.) nightshade (Solanum ptycanthum); assay: Test B pre-/postemergence plant response; details: Preemergence
Text: as §1, §2, §3

[8] = tested on: woolly cupgrass (Eriochloa villosa); assay: Test B pre-/postemergence plant response; details: Preemergence
Text: as §1, §2, §3

[9] = tested on: goosegrass (Eleusine indica); assay: Test B pre-/postemergence plant response; details: Preemergence
Text: as §1, §2, §3

[10] = tested on: common (oilseed) sunflower (Helianthus annuus); assay: Test B pre-/postemergence plant response; details: Preemergence
Text: as §1, §2, §3

wild oat (Avena fatua) = assay: Test B pre-/postemergence plant response; details: Preemergence
Text: as §1, §2, §3

[11] = tested on: giant foxtail (Setaria faberii); assay: Test B pre-/postemergence plant response; details: Preemergence
Text: as §1, §2, §3

rice (Oryza sativa) = assay: Test B flooded paddy test plant response
Method in brief: (§4)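 2-leaf plants; pots flooded 3 cm above soil; compound added to paddy water; depth maintained. Greenhouse 13–15 d. Visual rating vs controls, 0 (no effect) to 100 (complete control); dash = no result.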

[12] = tested on: ducksalad (Heteranthera limosa); assay: Test B flooded paddy test plant response
Method in brief: as §4

[13] = 16 g ai/ha, scale 0 to 100 (0 no effect, 100 complete control)
[14] = 31 g ai/ha, 0 to 100 scale, 0 no effect, 100 complete control
[15] = Flood (flooded paddy test), 62 g ai/ha, scale 0 to 100, 0 no effect, 100 complete control
[16] = Flood (flooded paddy test), 125 g ai/ha, scale 0 to 100, 0 no effect, 100 complete control
[17] = Flood (flooded paddy test), 250 g ai/ha, scale 0 to 100, 0 no effect, 100 complete control
[18] = Flood, 31 g ai/ha, scale 0 to 100

Structure (SMILES): Cn1ncc(O)c(-c2nn(-c3ccc(Cl)cc3)cc2Br)c1=O [Compound 31]
- Plant response rating, Foxtail, Green [1, 13]: 98
- Plant response rating, Foxtail, Green [1, 14]: 100
- Plant response rating, Foxtail, Green ([1]; 62 g ai/ha, scale 0 to 100): 100
- Foxtail, Green plant response rating ([1]; 8 g ai/ha, scale 0 to 100): 65
- Plant response rating, Crabgrass, Large [2, 13]: 90
- Plant response rating, Crabgrass, Large [2, 14]: 100
- Plant response rating, Crabgrass, Large ([2]; 62 g ai/ha, scale 0 to 100): 100
- Crabgrass, Large plant response rating ([2]; 8 g ai/ha, scale 0 to 100): 80
- Plant response rating, Johnsongrass [3, 13]: 60
- Plant response rating, Johnsongrass [3, 14]: 75
- Plant response rating, Johnsongrass ([3]; 62 g ai/ha, scale 0 to 100): 75
- Johnsongrass plant response rating ([3]; 8 g ai/ha, scale 0 to 100): 55
- Plant response rating, Pigweed [4, 13]: 0
- Plant response rating, Pigweed [4, 14]: 0
- Plant response rating, Pigweed ([4]; 62 g ai/ha, scale 0 to 100): 0
- Pigweed plant response rating ([4]; 8 g ai/ha, scale 0 to 100): 0
- Plant response rating, Ragweed [5, 13]: 0
- Plant response rating, Ragweed [5, 14]: 0
- Plant response rating, Ragweed ([5]; 62 g ai/ha, scale 0 to 100): 0
- Ragweed plant response rating ([5]; 8 g ai/ha, scale 0 to 100): 0
- Plant response rating, Velvetleaf [6, 13]: 0
- Plant response rating, Velvetleaf [6, 14]: 0
- Plant response rating, Velvetleaf ([6]; 62 g ai/ha, scale 0 to 100): 0
- Velvetleaf plant response rating ([6]; 8 g ai/ha, scale 0 to 100): 0
- Plant response rating, Nightshade, E. B. [7, 13]: 0
- Plant response rating, Nightshade, E. B. [7, 14]: 0
- Plant response rating, Nightshade, E. B. ([7]; 62 g ai/ha, scale 0 to 100): 0
- Nightshade, E. B. plant response rating ([7]; 8 g ai/ha, scale 0 to 100): 0
- Plant response rating, Cupgrass, Woolly [8, 13]: 98
- Plant response rating, Cupgrass, Woolly [8, 14]: 100
- Plant response rating, Cupgrass, Woolly ([8]; 62 g ai/ha, scale 0 to 100): 100
- Cupgrass, Woolly plant response rating ([8]; 8 g ai/ha, scale 0 to 100): 70
- Plant response rating, Goosegrass [9, 13]: 90
- Plant response rating, Goosegrass [9, 14]: 100
- Plant response rating, Goosegrass ([9]; 62 g ai/ha, scale 0 to 100): 100
- Goosegrass plant response rating ([9]; 8 g ai/ha, scale 0 to 100): 85
- Plant response rating, Sunflower [10, 13]: 0
- Plant response rating, Sunflower [10, 14]: 0
- Plant response rating, Sunflower ([10]; 62 g ai/ha, scale 0 to 100): 0
- Sunflower plant response rating ([10]; 8 g ai/ha, scale 0 to 100): 0
- Plant response rating, Oat, Wild (wild oat (Avena fatua); [13]): 45
- Plant response rating, Oat, Wild (wild oat (Avena fatua); [14]): 70
- Plant response rating, Oat, Wild (wild oat (Avena fatua); 62 g ai/ha, scale 0 to 100): 90
- Plant response rating, Foxtail, Giant [11, 13]: 90
- Plant response rating, Foxtail, Giant [11, 14]: 100
- Plant response rating, Foxtail, Giant ([11]; 62 g ai/ha, scale 0 to 100): 100
- Foxtail, Giant plant response rating ([11]; 8 g ai/ha, scale 0 to 100): 90
- Plant response rating, Rice (rice (Oryza sativa); [15]): 0
- Plant response rating, Rice (rice (Oryza sativa); [16]): 0
- Plant response rating, Rice (rice (Oryza sativa); [17]): 0
- Plant response rating, Rice (rice (Oryza sativa); [18]): 0
- Plant response rating, Ducksalad [12, 15]: 0
- Plant response rating, Ducksalad [12, 16]: 0
- Plant response rating, Ducksalad [12, 17]: 0
- Plant response rating, Ducksalad [12, 18]: 0
